Data published in patent publication US20230220047A1, “PEPTIDES FOR TREATMENT OF SEPSIS AND CANCER” (NORWEGIAN UNIVERSITY OF SCIENCE AND TECHNOLOGY (NTNU), priority 2020, published 2023).
“Also recorded” adds a separate entry of the source.

Tests used:
[1] = test system: ANBL-6 multiple myeloma cells; assay: CellTiter-Glo cell viability assay, ANBL-6; format: cell-based; settings: for anti-proliferative activity over a concentration series: 5, 10, 12.5, 15, 20 and 30 μM or 5, 10 and 20 μM
[2] = test system: TLR8; assay: Whole blood assay, CL075 stimulation; format: cell-based, human
Description: […] Results are for at least 6 donors. The Wilcoxon matched-pairs signed rank test was used for statistical analysis between 2 groups in Prizm 8.2.1. In each graph, circles indicate whole blood pre-treated with water, squares indicate blood pre-treated with control peptide (average for treatment with Pen and C3-Pen), and triangles indicate pre-treatment with P7-Pen.
To evaluate the effect of peptides in an ex vivo system, a human whole blood model was used. Peripheral venous blood was drawn from 6 healthy donors into sterile polypropylene tubes (Thermo Scientific™ Nunc™ Biobanking and Cell Culture Cryogenic Tubes) containing the anti-coagulant Lepirudin (Refludan®; Celgene). Peptide solutions were made by diluting peptide stocks in DPBS (Dulbecco's Phosphate Buffered Saline with MgCl2 and CaCl2; Sigma-Aldrich) to obtain a final concentration of 140 μM. Peptide solution or DPBS was distributed in equal volume (50 μL) to 1.8 mL sterile polypropylene tubes (Thermo Scientific™Nunc™ Biobanking and Cell Culture Cryogenic Tubes). 250 μL whole blood was then added to the 1.8 mL tubes containing peptide solution or DPBS, and incubated at 37° C. under constant rotation for 1 h (concentration of peptides for pre-incubation: 23.3 μM). Stimulation solutions were made by diluting K12 LPS or CL075 in DPBS to obtain a final concentration in whole blood of 100 ng/mL (LPS) or 1 μg/mL (CL075) after addition of 50 μL stimulation solution or DPBS. Concentration of peptides in whole blood samples was reduced by this to 20 μM. Tubes were incubated at 37° C. under constant rotation for 4 h. Finally, plasma was isolated from the whole blood specimens by centrifugation, collected in 96 well plates (Corning® 96 Well CellBIND® Microplates), and stored at −20/−80° C. until analysis by multiplex/27-plex cytokine assay or IFNβ ELISA (VeriKine-HS Human Interferon Beta Serum ELISA Kit; pbl Assay Science).

Row | Substance | effect on proliferation of ANBL-6 cells ([1]; 15 μM) | anti-proliferative activity over a concentration series ([1]; 48 h) | cell proliferation ([1]; ANBL-6, 10 μM, 48 h) | cytotoxic activity (cell numbers below number seeded) ([1]; higher concentrations, 48 h) | TLR8-mediated pro-inflammatory cytokine secretion ([2]; 20 μM, CL075) | TLR8-mediated IFNβ release/secretion by whole blood cells ([2]; 20 μM, CL075 1 μg/ml 4 h) | CL075-mediated IFNβ secretion by whole blood cells ([2]; pilot assay, 10 μM, CL075 1 μg/ml)
1 | Ac-ITVAASVTLTGRQIKIWFQNRRMKWKK-NH2 [Peptide P7-A4-Pen] | anti-proliferative effect | clear concentration-dependent effect | strongly inhibited cell proliferation | cytotoxic activity |  |  | 
2 | Ac-ITVYASVTLTGRQIKIWFQNRRMKWKK-NH2 [Peptide P7-Pen] |  | essentially no anti-proliferative effect |  |  | no significant effect | effectively abrogated; also recorded: inhibited | 
3 | Ac-ITVYASVTLTGRRRRRRRRRRR-NH2 [Peptide P7-Arg11] |  |  |  |  |  |  | inhibited
